PMC10376326, “Novel Acylselenourea Derivatives: Dual Molecules with Anticancer and Radical Scavenging Activity” (Antioxidants, 2023)
Read-outs that look alike come from different tables or passages of the source.

What was measured:
[1] = set-up: method as in PMID 36671001; details: selenoester analogs, 0.03 mg/mL, 90 min; cited from earlier work
[2] = test system: HT-29 (colon) cancer cell line; assay: MTT cell viability assay, HT-29; type: cell-based; details: Homo sapiens, HT-29, 48 h, read-out: Cell growth %; for activity at 10 µM: HT-29, 10 µM; for activity at 50 µM: HT-29, 50 µM
Procedure: (§1) Cell lines were purchased from the American Type Culture Collection (ATCC). Cell lines MDA-MB-231, HTB-54, DU-145, and BEAS-2B were cultured in RPMI 1640 medium (Gibco, Thermo Fisher Scientific, Gaithersburg, MD, USA) supplemented with 10% fetal bovine serum (FBS; Gibco), 100 units/mL penicillin, and […] streptomycin (Gibco). HT-29 cell line was grown in McCoy’s 5A (Gibco), 10% FBS, 100 units/mL penicillin, and 100 μg/mL streptomycin. Cells were maintained at 37 °C and 5% CO2. The culture medium was changed every three days.
(§2) The cell viability of each compound was measured by MTT colorimetric assay. Each compound was dissolved in DMSO at a concentration of 0.01 M. Each compound was tested at two different concentrations (10 and 50 µM) in MDA-MB-231 (breast), HTB-54 (lung), DU-145 (prostate), and HT-29 (colon) human cancer cell lines. Serial dilutions were prepared with supplemented culture medium. […] IC50 and selectivity indexes (SI) were determined.
(§3) Briefly, 1 × 10^4 tumor cells per well were grown in 96-well plates for 24 h. Then, these cells were incubated for 48 h with either DMSO (control) or a different concentration of each of the tested compounds. The cell viability was determined by adding 20 μL of MTT two hours and a half before the termination point. After this time, the culture medium was removed. The resulting formazan crystals were dissolved in 50 μL of DMSO, and the absorbance was measured at 570 nm. Results are expressed as % cell growth. The data were obtained from at least three independent experiments performed in quadruplicate.

[3] = DPPH radical scavenging assay; type: biochemical; details: for DPPH Inhibitory%: acylselenourea analogs
Procedure: Different methods are available to quantify the antioxidant capacity of natural or novel molecules. Notable among these are the ABTS^•+ and DPPH^• methods, which measure the quenching efficiency in vitro for known concentrations of preformed radicals. In this work, the DPPH^• colorimetric assay was carried out. Measurements were recorded on a BioTeck PowerWave XS spectrophotometer (BioTeck Instruments, Winooski, VT, USA) and data were collected using KCJunior v.1.41. software (BioTeck Instruments, Winooski, VT, USA). Compounds with potent activity were selected to further determine their protective effect against ROS-induced cell death caused by H2O2.
DPPH colorimetric assay was performed to determine the in vitro radical scavenging activity of the acylselenourea derivatives. DPPH assay was performed as described by Svinyarov. For each acylselenourea, a stock solution of 1 mg/mL in dimethyl sulfoxide (DMSO) was made, and these solutions were used to prepare the different concentrations employed in the assay. The compounds were tested at two different concentrations (0.003 and 0.03 mg/mL). Intermediate solutions were prepared in methanol and a volume of 100 µL of each was added to each well of the plate. Then, 100 µL of DPPH^• (previously prepared at a concentration of 0.04 mg/mL in methanol and preserved in the dark) was added to the previous methanolic acylselenourea solutions. The discoloration of the purple radical to the yellow reduced form was followed at 517 nm at different time points (0, 5, 15, 30, 60, 90, and 120 min). Ascorbic acid and trolox were used as positive controls. All measurements were carried out in triplicate. Results are expressed as the percentage of the radicals scavenged, calculated using the following formula: (1) % DPPH radical scavenging=Acontrol - Asample/Acontrol × 100 where Acontrol refers to the absorbance of the negative control and Asample refers to the absorbance of the tested compounds. Results are expressed as percentage of DPPH radical scavenging ± SD.

[4] = test system: MDA-MB-231 (breast) cancer cell line; assay: MTT cell viability assay, MDA-MB-231; type: cell-based, human; details: Homo sapiens, MDA-MB-231, 48 h; for activity at 10 µM: read-out: Cell growth %, MDA-MB-231, 10 µM, 48 h, MTT; for activity at 50 µM: read-out: Cell growth %, MDA-MB-231, 50 µM, 48 h, MTT
Procedure: as §1, §2, §3

[5] = test system: MDA-MB-231, HT-29, HTB-54 and DU-145 cancer cell lines; assay: MTT cell viability assay, statements over the panel of cancer cell lines; type: cell-based, human; details: 10 µM, over the four cancer cell lines
Procedure: as §1, §2, §3

[6] = test system: DU-145 (prostate) cancer cell line; assay: MTT cell viability assay, DU-145; type: cell-based, human; details: Homo sapiens, DU-145, 48 h; for activity at 10 µM: read-out: Cell growth %, DU-145, 10 µM, 48 h, MTT; for activity at 50 µM: read-out: Cell growth %, DU-145, 50 µM, 48 h, MTT
Procedure: as §1, §2, §3

[7] = test system: HTB-54 (lung) cancer cell line; assay: MTT cell viability assay, HTB-54; type: cell-based, human; details: for activity at 10 µM: read-out: Cell growth %, HTB-54, 10 µM, 48 h, MTT; for activity at 50 µM: read-out: Cell growth %, HTB-54, 50 µM, 48 h, MTT
Procedure: as §1, §2, §3

[8] = test system: non-malignant BEAS-2B lung cell line; assay: MTT cell viability assay, BEAS-2B; type: cell-based; details: Homo sapiens, normal lung, 48 h
Procedure: as §1, §2, §3

C=CC[Se]C(=O)c1ccco1 [C00001 2-furyl]
DPPH Inhibitory% [1]: 4.6 ± 7.5%

C=CC[Se]C(=O)C=Cc1ccccc1 [C00001 2-phenylvinyl]
DPPH Inhibitory% [1]: 3.6 ± 5.3%

C=CC[Se]C(=O)c1cccs1 [C00001 2-thiophenyl]
DPPH Inhibitory% [1]: 7.8 ± 10.4%

C=CC[Se]C(=O)c1cccnc1 [C00001 3-pyridyl]
DPPH Inhibitory% [1]: 6.3 ± 2.9%

C=CC[Se]C(=O)c1ccc2c(c1)OCO2 [C00001 5-benzo[d][1, 3]dioxyl]
DPPH Inhibitory% [1]: 0.0 ± 2.3%

C=CC[Se]C(=O)c1ccccc1 [C00001 phenyl]
DPPH Inhibitory% [1]: 9.0 ± 1.2%

C#CC[Se]C(=O)c1ccco1 [C00003 2-furyl]
DPPH Inhibitory% [1]: 5.4 ± 2.3%

C#CC[Se]C(=O)C=Cc1ccccc1 [C00003 2-phenylvinyl]
DPPH Inhibitory% [1]: 2.4 ± 2.0%

C#CC[Se]C(=O)c1cccs1 [C00003 2-thiophenyl]
DPPH Inhibitory% [1]: 0.0 ± 2.1%

C#CC[Se]C(=O)c1cccnc1 [C00003 3-pyridyl]
DPPH Inhibitory% [1]: 7.4 ± 0.7%

C#CC[Se]C(=O)c1ccc2c(c1)OCO2 [C00003 5-benzo[d][1, 3]dioxyl]
DPPH Inhibitory% [1]: 4.2 ± 8.0%

C#CC[Se]C(=O)c1ccccc1 [C00003 phenyl]
DPPH Inhibitory% [1]: 3.5 ± 0.9%

C=CCNC(=[Se])NC(=O)c1ccco1 [Compound 1.II, N-(allylcarbamoselenoyl)furan-2-carboxamide]
activity at 10 µM [2]: 95 ± 15.7% | activity at 50 µM [2]: 16.6 ± 5.3% | inhibition ([3]; 0.003 mg/mL, 0 min): 1.7 ± 0.3% | inhibition ([3]; 0.003 mg/mL, 5 min): 5.4 ± 0.5% | inhibition ([3]; 0.003 mg/mL, 15 min): 8.8 ± 0.9% | inhibition ([3]; 0.003 mg/mL, 30 min): 12.1 ± 1.2% | inhibition ([3]; 0.003 mg/mL, 60 min): 16.5 ± 1.5% | inhibition ([3]; 0.003 mg/mL, 90 min): 19.5 ± 1.7% | inhibition ([3]; 0.003 mg/mL, 120 min): 21.1 ± 1.4% | time to reach the highest DPPH inhibition ([3]; 0.03 mg/mL): 60 min | inhibition ([3]; 0.03 mg/mL, 0 min): 16 ± 1.9% | inhibition ([3]; 0.03 mg/mL, 5 min): 45.2 ± 5.1% | inhibition ([3]; 0.03 mg/mL, 15 min): 65.4 ± 4.1% | inhibition ([3]; 0.03 mg/mL, 30 min): 85.4 ± 4.9% | inhibition ([3]; 0.03 mg/mL, 60 min): 96.5 ± 0.6% | inhibition ([3]; 0.03 mg/mL, 120 min): 96.5 ± 0.5% | DPPH Inhibitory% ([3]; 0.03 mg/mL, 90 min): 96.6 ± 0.6% | activity at 10 µM [4]: 80.4 ± 8.4% | activity at 50 µM [4]: 14.5 ± 7.9% | cell growth % [5]: 54.8–95.0% | activity at 10 µM [6]: 81.5 ± 13.5% | activity at 50 µM [6]: 10.6 ± 5.7% | activity at 10 µM ([7]; Homo sapiens, HTB-54, 48 h): 54.9 ± 11.2% | activity at 50 µM ([7]; Homo sapiens, HTB-54, 48 h): 11.1 ± 5.2%

C#CCNC(=[Se])NC(=O)c1cccs1 [Compound 2.III, N-(prop-2-in-1-ylcarbamoselenoyl)thiophene-2-carboxamide]
activity at 10 µM [2]: 43.4 ± 4.2% | activity at 50 µM [2]: 20.6 ± 4% | IC50 [8]: 26.6 ± 4 µM | inhibition ([3]; 0.003 mg/mL, 0 min): 2.4 ± 0.6% | inhibition ([3]; 0.003 mg/mL, 5 min): 4.3 ± 0.4% | inhibition ([3]; 0.003 mg/mL, 15 min): 5.4 ± 0.3% | inhibition ([3]; 0.003 mg/mL, 30 min): 6.5 ± 0.5% | inhibition ([3]; 0.003 mg/mL, 60 min): 7.1 ± 0.5% | inhibition ([3]; 0.003 mg/mL, 90 min): 7.3 ± 0.6% | inhibition ([3]; 0.003 mg/mL, 120 min): 7.3 ± 0.6% | inhibition ([3]; 0.03 mg/mL, 0 min): 14.5 ± 2.3% | inhibition ([3]; 0.03 mg/mL, 5 min): 12.8 ± 3% | inhibition ([3]; 0.03 mg/mL, 15 min): 19.8 ± 2.8% | inhibition ([3]; 0.03 mg/mL, 30 min): 24.8 ± 2.6% | inhibition ([3]; 0.03 mg/mL, 60 min): 30.2 ± 2.9% | inhibition ([3]; 0.03 mg/mL, 120 min): 34.4 ± 2.9% | DPPH Inhibitory% ([3]; 0.03 mg/mL, 90 min): 33.0 ± 3.1% | activity at 10 µM [4]: 27.4 ± 5.4% | activity at 50 µM [4]: 9.48 ± 7.8% | activity at 10 µM [6]: 12.8 ± 2.8% | activity at 50 µM [6]: 14.3 ± 6.7% | activity at 10 µM ([7]; Homo sapiens, HTB-54, 48 h): 76.8 ± 6.8% | activity at 50 µM ([7]; Homo sapiens, HTB-54, 48 h): 44.7 ± 3.5% | IC50 ([7]; Homo sapiens, HTB-54, 48 h, read-out: IC50 HTB-54, Lung, MTT, 48 h): 11.6 ± 1.6 µM | SI ([7]; IC50 (BEAS-2B)/IC50 (HTB-54)): 2.3

C=CCNC(=[Se])NC(=O)c1ccc2c(c1)OCO2 [Compound 8.II, N-(allylcarbamoselenoyl)benzo[d][1,3]dioxole-5-carboxamide]
activity at 10 µM [2]: 83.5 ± 16.4% | activity at 50 µM [2]: 26.6 ± 3.8% | inhibition ([3]; 0.003 mg/mL, 0 min): 1.2 ± 1.4% | inhibition ([3]; 0.003 mg/mL, 5 min): 2.8 ± 1.3% | inhibition ([3]; 0.003 mg/mL, 15 min): 5 ± 1.2% | inhibition ([3]; 0.003 mg/mL, 30 min): 7.1 ± 1.1% | inhibition ([3]; 0.003 mg/mL, 60 min): 9.7 ± 1.1% | inhibition ([3]; 0.003 mg/mL, 90 min): 10.9 ± 1.2% | inhibition ([3]; 0.003 mg/mL, 120 min): 11.7 ± 1.2% | inhibition ([3]; 0.03 mg/mL, 0 min): 17.6 ± 4.6% | inhibition ([3]; 0.03 mg/mL, 5 min): 39 ± 3% | inhibition ([3]; 0.03 mg/mL, 15 min): 55.5 ± 2.1% | inhibition ([3]; 0.03 mg/mL, 30 min): 68 ± 1.7% | inhibition ([3]; 0.03 mg/mL, 60 min): 81.4 ± 1.3% | inhibition ([3]; 0.03 mg/mL, 120 min): 93.7 ± 1.4% | DPPH Inhibitory% ([3]; 0.03 mg/mL, 90 min): 88.2 ± 1.3% | activity at 10 µM [4]: 80.7 ± 6.4% | activity at 50 µM [4]: 15.5 ± 7.6% | activity at 10 µM [6]: 88.6 ± 10.1% | activity at 50 µM [6]: 10.3 ± 4.2% | activity at 10 µM ([7]; Homo sapiens, HTB-54, 48 h): 51.9 ± 15% | activity at 50 µM ([7]; Homo sapiens, HTB-54, 48 h): 20 ± 6.6%

C=CCNC(=O)c1cccc(C(=O)NC(=[Se])NCC=C)c1 [Compound 11.II, N^1-allyl-N^3-(allylcarbamoselenoyl)isophthalamide]
activity at 10 µM [2]: 88.1 ± 4.8% | activity at 50 µM [2]: 30.8 ± 4% | inhibition ([3]; 0.003 mg/mL, 0 min): 0% | inhibition ([3]; 0.003 mg/mL, 5 min): 2.5 ± 1.4% | inhibition ([3]; 0.003 mg/mL, 15 min): 5.8 ± 1.2% | inhibition ([3]; 0.003 mg/mL, 30 min): 8.6 ± 0.9% | inhibition ([3]; 0.003 mg/mL, 60 min): 11.6 ± 1% | inhibition ([3]; 0.003 mg/mL, 90 min): 12.8 ± 0.8% | inhibition ([3]; 0.003 mg/mL, 120 min): 13.5 ± 0.7% | inhibition ([3]; 0.03 mg/mL, 0 min): 11 ± 3% | inhibition ([3]; 0.03 mg/mL, 5 min): 38.5 ± 0.3% | inhibition ([3]; 0.03 mg/mL, 15 min): 56.8 ± 0.6% | inhibition ([3]; 0.03 mg/mL, 30 min): 70.1 ± 1% | inhibition ([3]; 0.03 mg/mL, 60 min): 83 ± 1% | inhibition ([3]; 0.03 mg/mL, 90 min): 89.6 ± 1.2% | inhibition ([3]; 0.03 mg/mL, 120 min): 94.3 ± 1.2% | activity at 10 µM [4]: 77.1 ± 10.1% | activity at 50 µM [4]: 14.7 ± 7.8% | activity at 10 µM [6]: 93.8 ± 8% | activity at 50 µM [6]: 22 ± 5.8% | activity at 10 µM ([7]; Homo sapiens, HTB-54, 48 h): 48.3 ± 6.9% | activity at 50 µM ([7]; Homo sapiens, HTB-54, 48 h): 5.94 ± 4.7%
